In patent US7652029B2, “Therapeutic compound and treatments” (priority 2004, dated 2010):

What was measured:
MOLT-4 = assay: NCI multiple cell line test (SRB); type: cell-based, human; details: MOLT-4 (Leukemia), 48 h
RPMI-8226 = assay: NCI multiple cell line test (SRB); type: cell-based, human; details: RPMI-8226 (Leukemia), 48 h
NCI-H226 = assay: NCI multiple cell line test (SRB); type: cell-based, human; details: NCI-H226 (Non-Small Cell Lung Cancer), 48 h
NCI-H23 = assay: NCI multiple cell line test (SRB); type: cell-based, human; details: NCI-H23 (Non-Small Cell Lung Cancer), 48 h
COLO 205 = assay: NCI multiple cell line test (SRB); type: cell-based, human; details: COLO 205 (Colon Cancer), 48 h
HCT-116 = assay: NCI multiple cell line test (SRB); type: cell-based, human; details: HCT-116 (Colon Cancer), 48 h
HCT-15 = assay: NCI multiple cell line test (SRB); type: cell-based, human; details: HCT-15 (Colon Cancer), 48 h
HT29 = assay: NCI multiple cell line test (SRB); type: cell-based, human; details: HT29 (Colon Cancer), 48 h
SW-620 = assay: NCI multiple cell line test (SRB); type: cell-based, human; details: SW-620 (Colon Cancer), 48 h
SF-268 = assay: NCI multiple cell line test (SRB); type: cell-based, human
U251 = assay: NCI multiple cell line test (SRB); type: cell-based, human; details: U251 (CNS Cancer), 48 h
LOX IMVI = assay: NCI multiple cell line test (SRB); type: cell-based, human; details: LOX IMVI (Melanoma), 48 h
SK-MEL-28 = assay: NCI multiple cell line test (SRB); type: cell-based, human; details: SK-MEL-28 (Melanoma), 48 h
UACC-257 = assay: NCI multiple cell line test (SRB); type: cell-based, human; details: UACC-257 (Melanoma), 48 h
UACC-62 = assay: NCI multiple cell line test (SRB); type: cell-based, human; details: UACC-62 (Melanoma), 48 h
OVCAR-5 = assay: NCI multiple cell line test (SRB); type: cell-based, human; details: OVCAR-5 (Ovarian Cancer), 48 h
SN12C = assay: NCI multiple cell line test (SRB); type: cell-based, human; details: SN12C (Renal Cancer), 48 h
MCF7 = assay: NCI multiple cell line test (SRB); type: cell-based, human
BT-549 = assay: NCI multiple cell line test (SRB); type: cell-based, human; details: BT-549 (Breast Cancer), 48 h
T-47D = assay: NCI multiple cell line test (SRB); type: cell-based, human; details: T-47D (Breast Cancer), 48 h
[1] = test system: normal human lung fibroblasts; assay: Growth response, MTT dye conversion assay; type: cell-based; details: compared with cisplatin
HOP-92 cells = assay: Growth response, MTT dye conversion assay; type: cell-based, human; details: low doses (FIG. 12 as printed)
H226 cells = assay: Growth response, MTT dye conversion assay; type: cell-based, human
MCF-7 cells = assay: Growth response, MTT dye conversion assay; type: cell-based, human; details: FIG. 7; 48 hours; compared with cisplatin
SCK cells = assay: Growth response, MTT dye conversion assay; type: cell-based, murine; details: FIG. 8; 48 hours; compared with cisplatin
A549 cells = assay: Growth response, MTT dye conversion assay; type: cell-based, human; details: low doses (FIG. 13 as printed)
[2] = Homo sapiens, read-out: −log10GI50 (converted)

With `COC(=O)C1=C(C(=O)OC)SC2(S1)C(C(=O)OC)=C(C(=O)OC)SC1=C2c2cccc(OC)c2N(C(=O)CN2C(=O)CCC2=O)C1(C)C` [MT477] the IC50 (MOLT-4; [2]) was 1020 nM, the “−log10LC50” value (MOLT-4) was 4.68 molar and the “−log10TGI” value (MOLT-4) was 5.64 molar. For the same compound, the IC50 (RPMI-8226; [2]) was 7590 nM, the “−log10LC50” value (RPMI-8226) was 4.42 molar and the “−log10TGI” value (RPMI-8226) was 4.77 molar. For the same compound, the IC50 (NCI-H226; [2]) was 7080 nM, the “−log10LC50” value (NCI-H226) was “* (effect not reached at maximum dose of 0.05 millimolar)” and the “−log10TGI” value (NCI-H226) was 4.72 molar. For the same compound, the IC50 (NCI-H23; [2]) was 955 nM, the “−log10LC50” value (NCI-H23) was 5.42 molar and the “−log10TGI” value (NCI-H23) was 5.72 molar. For the same compound, the “−log10LC50” value (COLO 205) was “* (effect not reached at maximum dose of 0.05 millimolar)”, the “−log10TGI” value (COLO 205) was 5.19 molar and the IC50 (COLO 205; [2]) was 1660 nM. For the same compound, the “−log10LC50” value (HCT-116) was 5.48 molar, the “−log10TGI” value (HCT-116) was 5.75 molar and the IC50 (HCT-116; [2]) was 955 nM. For the same compound, the “−log10LC50” value (HCT-15) was 4.69 molar, the “−log10TGI” value (HCT-15) was 5.27 molar and the IC50 (HCT-15; [2]) was 1480 nM. For the same compound, the “−log10LC50” value (HT29) was “* (effect not reached at maximum dose of 0.05 millimolar)”, the “−log10TGI” value (HT29) was 4.65 molar and the IC50 (HT29; Homo sapiens, HT-29, read-out: −log10GI50 (converted)) was 1700 nM. For the same compound, the IC50 (SW-620; [2]) was 1660 nM, the “−log10LC50” value (SW-620) was “* (effect not reached at maximum dose of 0.05 millimolar)” and the “−log10TGI” value (SW-620) was “* (effect not reached at maximum dose of 0.05 millimolar)”. For the same compound, the GI50 (SF-268; Homo sapiens, SF-268, NCI-SF268, MT477 ACTUAL) was 2510 nM, the IC50 (SF-268; Homo sapiens, SF-268 (CNS Cancer), 48 h, read-out: −log10GI50 (converted)) was 2140 nM and the “Activity against CNS cancer NCI-SF268” value (SF-268; MT477 ACTUAL) was “Yes”. For the same compound, the “−log10LC50” value (SF-268; SF-268 (CNS Cancer), 48 h) was “* (effect not reached at maximum dose of 0.05 millimolar)”, the “−log10TGI” value (SF-268; SF-268 (CNS Cancer), 48 h) was 4.97 molar and the IC50 (U251; Homo sapiens, U-251, read-out: −log10GI50 (converted)) was 2000 nM. For the same compound, the “−log10LC50” value (U251) was 4.72 molar, the “−log10TGI” value (U251) was 5.14 molar and the IC50 (LOX IMVI; [2]) was 851 nM. The “−log10LC50” value (LOX IMVI) was 5.52 molar, the “−log10TGI” value (LOX IMVI) was 5.79 molar and the IC50 (SK-MEL-28; [2]) was 1550 nM. For the same compound, the “−log10LC50” value (SK-MEL-28) was “* (effect not reached at maximum dose of 0.05 millimolar)”, the “−log10TGI” value (SK-MEL-28) was 5.27 molar and the IC50 (UACC-257; [2]) was 1480 nM. For the same compound, the “−log10LC50” value (UACC-257) was 4.55 molar, the “−log10TGI” value (UACC-257) was 5.53 molar and the IC50 (UACC-62; [2]) was 1170 nM. For the same compound, the “−log10LC50” value (UACC-62) was 5.03 molar, the “−log10TGI” value (UACC-62) was 5.55 molar and the IC50 (OVCAR-5; [2]) was 8910 nM. The “−log10LC50” value (OVCAR-5) was 4.53 molar, the “−log10TGI” value (OVCAR-5) was 4.79 molar and the IC50 (SN12C; [2]) was 5890 nM. The “−log10LC50” value (SN12C) was 4.6 molar, the “−log10TGI” value (SN12C) was 4.91 molar and the IC50 (MCF7; Homo sapiens, MCF7 (Breast Cancer), 48 h, read-out: −log10GI50 (converted)) was 1780 nM. The GI50 (MCF7; Homo sapiens, NCI-MCF7, MT477 ACTUAL) was 1580 nM, the “−log10LC50” value (MCF7; MCF7 (Breast Cancer), 48 h) was “* (effect not reached at maximum dose of 0.05 millimolar)” and the “−log10TGI” value (MCF7; MCF7 (Breast Cancer), 48 h) was “* (effect not reached at maximum dose of 0.05 millimolar)”. For the same compound, the “Activity against breast cancer NCI-MCF7” value (MCF7; MT477 ACTUAL) was “Yes”, the “−log10LC50” value (BT-549) was “* (effect not reached at maximum dose of 0.05 millimolar)” and the “−log10TGI” value (BT-549) was 4.86 molar. The IC50 (BT-549; [2]) was 3550 nM, the IC50 (T-47D; Homo sapiens, T47D, read-out: −log10GI50 (converted)) was 1510 nM and the “−log10LC50” value (T-47D) was “* (effect not reached at maximum dose of 0.05 millimolar)”. The “−log10TGI” value (T-47D) was 5.40 molar, the growth response ([1]; FIG. 10, normal human lung cells at 24 and 48 hours) was “more effective than cisplatin” and the “cytotoxicity profile (growth response)” value ([1]; FIGS. 1 and 2, 48 hours) was “cytotoxicity profile that is similar to cisplatin”. The “growth response at low concentrations” value (HOP-92 cells) was “effective even at very low doses, including micromolar dosages”, the growth response (H226 cells; FIG. 5, 48 hours, compared with cisplatin) was “more effective than cisplatin” and the “growth response at low concentrations” value (H226 cells; H226 cells, low doses (FIG. 11 as printed)) was “effective even at very low doses, including micromolar dosages”. For the same compound, the growth response (MCF-7 cells) was “more effective than cisplatin”, the growth response (SCK cells) was “more effective than cisplatin” and the “growth response at low concentrations” value (A549 cells) was “effective even at very low doses, including micromolar dosages”.
